Test results as given in publication PMC3214022, “Plasmodium falciparum Parasites Are Killed by a Transition State Analogue of Purine Nucleoside Phosphorylase in a Primate Animal Model” (PLoS ONE, 2011).

Assay: Weights, CBC, blood chemistry and signs of toxicity, Table S1 sheet PD-2 (infected Aotus, twice a day for seven days)
Assay type: in vivo, Aotus lemurinus lemurinus
Conditions: oral 10 mg/kg twice a day/7 days
Procedure: Laboratory bred Aotus lemurinus lemurinus monkeys (0.75–0.89 kg) were maintained as described. […] Blood samples were collected before the treatment started (t = 0), 0.05 h, 0.5 h, 1 h, 2 h, 6 h, 24 h, 48 h, and 6, 12 and 18 days after the first dose from each monkey and processed as described below. Pharmacokinetic parameters were calculated using PKSolver. For efficacy studies, Aotus monkeys were inoculated intravenously with 5×10^6 parasites of the FVO strain of P. falciparum in an approved treatment protocol. […] Parasitaemia was determined by Giemsa-stained thick blood smears prepared daily from the marginal ear vein [41]. Blood samples were collected from each monkey and transferred to tubes containing lithium heparin, centrifuged and both plasma and blood cells were frozen at −80 °C until analysis. Animals received a physical examination and blood chemistry profiles were monitored after treatment as described previously. Any monkey not responding appropriately to treatment was cured of its infection with mefloquine (40 mg kg^−1). […] The day of clearance is defined as the first of three consecutive days in which the thick blood films are parasite negative. The day of recrudescence is the first of three consecutive days of positive thick blood films after a period of clearance. Suppression is defined as a transient decrease in the parasite count post-treatment without clearance.

SMILES: Nc1nc2c(CN3CC(O)C(CO)C3)c[nH]c2c(=O)[nH]1 (stereo not shown) [BCX4945, 4′-deaza-1′-aza-2′-deoxy-1′-(9-methylene)-Immucillin-G]
- Mean Corpuscular Volume (25044 Male (ITM2), day 25): 86 fL
- Mean Hemoglobin Content (25044 Male (ITM2), day 25): 32.1 g/dL
- Mean Platelet Volume (25044 Male (ITM2), day 25): 12.7 fL
- Monocytes (%) (25044 Male (ITM2), day 25): 9.5%
- Monocytes (x 103/ul) (25044 Male (ITM2), day 25): 1.9 x 103/ul
- Platelets (25044 Male (ITM2), day 25): 166000 µL⁻¹
- Red Cell Distribution Width (25044 Male (ITM2), day 25): 22.2%
- Reticulocytes (25044 Male (ITM2), day 25): 2.6%
- WEIGHT (25044 Male (ITM2), day 25): 827 g
- Blood Urea Nitrogen (25044 Male (ITM2), day -10): 11.3 mg/dL
- Creatine (25044 Male (ITM2), day -10): 0.5 mg/dL
- Erythrocytes (25044 Male (ITM2), day -10): 5.93e+06 µL⁻¹
- Glutamate Pyruvate Transaminase (25044 Male (ITM2), day -10): 17.1 U/L
- Granulocytes (%) (25044 Male (ITM2), day -10): 13.3%
- Granulocytes (x 103/ul) (25044 Male (ITM2), day -10): 4.2 x 103/ul
- Hematocrit (25044 Male (ITM2), day -10): 44.6%
- Hemoglobin (25044 Male (ITM2), day -10): 15.8 g/dL
- Leucocytes (25044 Male (ITM2), day -10): 31300 µL⁻¹
- Lymphocytes (%) (25044 Male (ITM2), day -10): 76.1%
- Lymphocytes (x 103/ul) (25044 Male (ITM2), day -10): 23.8 x 103/ul
- Mean Corpuscular Hemoglobin (25044 Male (ITM2), day -10): 26.7 pg
- Mean Corpuscular Volume (25044 Male (ITM2), day -10): 75.2 fL
- Mean Hemoglobin Content (25044 Male (ITM2), day -10): 35.5 g/dL
- Mean Platelet Volume (25044 Male (ITM2), day -10): 13.1 fL
- Monocytes (%) (25044 Male (ITM2), day -10): 10.6%
- Monocytes (x 103/ul) (25044 Male (ITM2), day -10): 3.3 x 103/ul
- Platelets (25044 Male (ITM2), day -10): 236000 µL⁻¹
- Red Cell Distribution Width (25044 Male (ITM2), day -10): 13%
- Reticulocytes (25044 Male (ITM2), day -10): 1.2%
- WEIGHT (25044 Male (ITM2), day -10): 814 g
- Blood Urea Nitrogen (26027 Male (ITM3), day 8): 12.75 mg/dL
- Creatine (26027 Male (ITM3), day 8): 0.5 mg/dL
- Erythrocytes (26027 Male (ITM3), day 8): 4.51e+06 µL⁻¹
- Glutamate Pyruvate Transaminase (26027 Male (ITM3), day 8): 28.1 U/L
- Granulocytes (%) (26027 Male (ITM3), day 8): 18.4%
- Granulocytes (x 103/ul) (26027 Male (ITM3), day 8): 2.2 x 103/ul
- Hematocrit (26027 Male (ITM3), day 8): 36.2%
- Hemoglobin (26027 Male (ITM3), day 8): 13.0 g/dL
- Leucocytes (26027 Male (ITM3), day 8): 11800 µL⁻¹
- Lymphocytes (%) (26027 Male (ITM3), day 8): 70.2%
- Lymphocytes (x 103/ul) (26027 Male (ITM3), day 8): 8.3 x 103/ul
- Mean Corpuscular Hemoglobin (26027 Male (ITM3), day 8): 28.9 pg
- Mean Corpuscular Volume (26027 Male (ITM3), day 8): 80.2 fL
- Mean Hemoglobin Content (26027 Male (ITM3), day 8): 36 g/dL
- Mean Platelet Volume (26027 Male (ITM3), day 8): 11.7 fL
- Monocytes (%) (26027 Male (ITM3), day 8): 11.4%
- Monocytes (x 103/ul) (26027 Male (ITM3), day 8): 1.3 x 103/ul
- Platelets (26027 Male (ITM3), day 8): 216000 µL⁻¹
- Red Cell Distribution Width (26027 Male (ITM3), day 8): 11.8%
- Reticulocytes (26027 Male (ITM3), day 8): 1.4%
- WEIGHT (26027 Male (ITM3), day 8): 890 g
- Blood Urea Nitrogen (26027 Male (ITM3), day 12): 12.9 mg/dL
- Creatine (26027 Male (ITM3), day 12): 0.5 mg/dL
- Erythrocytes (26027 Male (ITM3), day 12): 4.4e+06 µL⁻¹
- Glutamate Pyruvate Transaminase (26027 Male (ITM3), day 12): 33.4 U/L
- Granulocytes (%) (26027 Male (ITM3), day 12): 26.5%
- Granulocytes (x 103/ul) (26027 Male (ITM3), day 12): 4.8 x 103/ul
- Hematocrit (26027 Male (ITM3), day 12): 36.1%
- Hemoglobin (26027 Male (ITM3), day 12): 13.1 g/dL
- Leucocytes (26027 Male (ITM3), day 12): 18200 µL⁻¹
- Lymphocytes (%) (26027 Male (ITM3), day 12): 67.6%
- Lymphocytes (x 103/ul) (26027 Male (ITM3), day 12): 12.3 x 103/ul
- Mean Corpuscular Hemoglobin (26027 Male (ITM3), day 12): 29.8 pg
- Mean Corpuscular Volume (26027 Male (ITM3), day 12): 82.1 fL
- Mean Hemoglobin Content (26027 Male (ITM3), day 12): 36.3 g/dL
- Mean Platelet Volume (26027 Male (ITM3), day 12): 12.2 fL
- Monocytes (%) (26027 Male (ITM3), day 12): 5.9%
- Monocytes (x 103/ul) (26027 Male (ITM3), day 12): 1.1 x 103/ul
- Platelets (26027 Male (ITM3), day 12): 339000 µL⁻¹
- Red Cell Distribution Width (26027 Male (ITM3), day 12): 12.1%
- Reticulocytes (26027 Male (ITM3), day 12): 2.6%
- WEIGHT (26027 Male (ITM3), day 12): 890 g
- Blood Urea Nitrogen (26027 Male (ITM3), day 15): 17.15 mg/dL
- Creatine (26027 Male (ITM3), day 15): 0.512 mg/dL
- Erythrocytes (26027 Male (ITM3), day 15): 4.77e+06 µL⁻¹
- Glutamate Pyruvate Transaminase (26027 Male (ITM3), day 15): 27.1 U/L
- Granulocytes (%) (26027 Male (ITM3), day 15): 32.6%
- Granulocytes (x 103/ul) (26027 Male (ITM3), day 15): 4 x 103/ul
- Hematocrit (26027 Male (ITM3), day 15): 40.6%
- Hemoglobin (26027 Male (ITM3), day 15): 14.5 g/dL
- Leucocytes (26027 Male (ITM3), day 15): 12200 µL⁻¹
- Lymphocytes (%) (26027 Male (ITM3), day 15): 63%
- Lymphocytes (x 103/ul) (26027 Male (ITM3), day 15): 7.7 x 103/ul
- Mean Corpuscular Hemoglobin (26027 Male (ITM3), day 15): 30.4 pg
- Mean Corpuscular Volume (26027 Male (ITM3), day 15): 85 fL
- Mean Hemoglobin Content (26027 Male (ITM3), day 15): 35.8 g/dL
- Monocytes (%) (26027 Male (ITM3), day 15): 4.4%
- Monocytes (x 103/ul) (26027 Male (ITM3), day 15): 0.5 x 103/ul
- Platelets (26027 Male (ITM3), day 15): 245000 µL⁻¹
- Red Cell Distribution Width (26027 Male (ITM3), day 15): 18.5%
- Reticulocytes (26027 Male (ITM3), day 15): 3.1%
